# Laboratory results published in US9302991B2, “Arylamide derivatives as TTX-S blockers” (RaQualia Pharma Inc., priority 2010, dated 2016).
# Where “and” joins values, the source holds several entries; their conditions need not be identical. Identical values can stand only once.
# What was measured:
# [1] = test system: CCI-induced static allodynia in rats; test: Chronic Constriction Injury (CCI)-induced static allodynia in rats; assay type: in vivo, Sprague-Dawley rats; conditions: 100 mg/kg per os
# Description: Chronic Constriction Injury (CCU-Induced Static Allodynia in Rats
# Male Sprague-Dawley rats at 7 weeks old are purchased from Charles River Japan Inc., and housed in groups of two per cage under a 12-h light/dark cycle (lights on at 07:00) with access to food and water ad libitum. CCI-induced static allodynia is assessed by von Frey hair (VFH) test. Surgery is performed according to the method of Bennett G J and Xie Y K (Pain 1988, 33: 87-107). The animals are anesthetized with intraperitoneal injection of pentobarbital sodium. The left common sciatic nerve is exposed at the level of the middle of the thigh, freed of adhering tissue, and four ligatures are loosely tided around it by using 4-0 silk thread. The incision is sutured, and the rats are allowed to recover in their cages with soft bedding. Sham operation is performed in the same manner except of sciatic nerve ligation. The animals are individually placed in a Plexiglas test chamber on an elevated grid to acclimate for 1 hour before the day of testing. […]
# In the cases where continuous positive or negative responses are observed all the way out to the end of the stimulus spectrum, values of 0.25 and 15 g are assigned, respectively. […] The 50% PWT is measured at the appropriated time after compound administration.
# human Nav1.7 channels = target: T1, human Nav1.7 channels (Homo sapiens, UniProt Q15858); test: FRET assay, human Nav1.7 (EFS on FDSS); assay type: cell-based; conditions: CHO cells expressing human Nav1.7, read-out: IC50 against Nav1.7
# T1 construct: expressed in transfected cells; host or cells: CHO
# Procedure, shortened: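 CHO cells stably expressing the channel, loaded with CC2-DMPE (10 µM) then DiSBAC2(3) (15 µM) plus VABSC-1, in HEPES-buffered saline pH 7.4 at room temperature. Electrical field stimulation on FDSS; FRET ratio at 440 nm fitted for IC50.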
# T1 sequence (Q15858 whole entry): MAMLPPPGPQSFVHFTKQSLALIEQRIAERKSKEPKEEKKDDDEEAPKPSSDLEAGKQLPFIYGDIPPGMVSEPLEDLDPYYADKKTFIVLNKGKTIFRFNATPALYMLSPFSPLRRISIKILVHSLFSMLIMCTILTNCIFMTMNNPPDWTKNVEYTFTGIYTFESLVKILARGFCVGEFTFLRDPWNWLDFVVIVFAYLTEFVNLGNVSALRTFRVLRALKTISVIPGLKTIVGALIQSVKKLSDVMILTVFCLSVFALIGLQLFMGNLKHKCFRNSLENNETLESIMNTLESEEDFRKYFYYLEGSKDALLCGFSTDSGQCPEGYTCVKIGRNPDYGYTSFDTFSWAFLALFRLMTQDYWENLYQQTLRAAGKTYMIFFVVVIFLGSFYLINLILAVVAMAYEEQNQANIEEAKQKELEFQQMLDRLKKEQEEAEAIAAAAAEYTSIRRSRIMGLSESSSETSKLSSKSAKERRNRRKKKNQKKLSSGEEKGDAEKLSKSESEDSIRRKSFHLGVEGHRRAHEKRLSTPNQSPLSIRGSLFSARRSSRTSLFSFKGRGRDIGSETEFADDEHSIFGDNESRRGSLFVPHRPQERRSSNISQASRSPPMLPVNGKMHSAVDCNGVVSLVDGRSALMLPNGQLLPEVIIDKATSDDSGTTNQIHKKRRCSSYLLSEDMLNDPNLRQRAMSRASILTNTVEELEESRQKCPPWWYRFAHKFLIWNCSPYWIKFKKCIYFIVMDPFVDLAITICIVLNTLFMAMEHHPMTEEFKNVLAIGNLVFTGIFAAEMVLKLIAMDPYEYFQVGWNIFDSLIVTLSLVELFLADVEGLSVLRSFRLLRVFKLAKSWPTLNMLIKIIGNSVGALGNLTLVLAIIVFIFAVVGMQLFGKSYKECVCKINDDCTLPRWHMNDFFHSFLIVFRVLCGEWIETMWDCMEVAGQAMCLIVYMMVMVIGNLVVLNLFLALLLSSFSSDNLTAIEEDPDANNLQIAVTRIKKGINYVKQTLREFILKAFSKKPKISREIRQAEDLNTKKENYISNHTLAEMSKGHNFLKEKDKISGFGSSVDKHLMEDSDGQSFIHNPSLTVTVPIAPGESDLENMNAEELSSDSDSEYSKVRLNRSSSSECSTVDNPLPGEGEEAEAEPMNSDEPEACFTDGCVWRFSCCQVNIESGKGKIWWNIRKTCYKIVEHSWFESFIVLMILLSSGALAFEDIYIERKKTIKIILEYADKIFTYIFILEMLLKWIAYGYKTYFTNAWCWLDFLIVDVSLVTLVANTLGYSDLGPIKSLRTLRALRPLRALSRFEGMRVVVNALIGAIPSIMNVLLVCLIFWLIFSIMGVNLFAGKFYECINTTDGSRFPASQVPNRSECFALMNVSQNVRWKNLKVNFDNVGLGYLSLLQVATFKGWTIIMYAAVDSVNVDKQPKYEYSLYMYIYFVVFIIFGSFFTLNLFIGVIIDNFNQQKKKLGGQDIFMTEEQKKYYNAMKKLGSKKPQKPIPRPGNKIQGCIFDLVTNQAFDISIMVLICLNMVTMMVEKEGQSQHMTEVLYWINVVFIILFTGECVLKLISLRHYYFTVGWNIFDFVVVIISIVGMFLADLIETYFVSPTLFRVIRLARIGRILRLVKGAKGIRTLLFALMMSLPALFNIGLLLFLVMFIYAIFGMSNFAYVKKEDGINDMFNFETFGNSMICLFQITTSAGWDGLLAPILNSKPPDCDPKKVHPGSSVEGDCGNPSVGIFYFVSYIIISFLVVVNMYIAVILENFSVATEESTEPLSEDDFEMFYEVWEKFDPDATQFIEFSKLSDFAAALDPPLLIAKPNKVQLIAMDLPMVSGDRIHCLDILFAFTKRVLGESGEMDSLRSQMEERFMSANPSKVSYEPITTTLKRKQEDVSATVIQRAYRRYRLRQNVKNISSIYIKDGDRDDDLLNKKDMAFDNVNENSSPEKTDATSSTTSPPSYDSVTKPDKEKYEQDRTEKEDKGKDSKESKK
compound,measurement,setting,value
"CC(=O)Nc1cc(C(=O)NC(C)c2ccc(OCC(F)(F)F)nc2)ccn1 (single isomer, unassigned; (-)) [Example 1, (−)-2-acetamido-N-(1-(6-(2,2,2-trifluoroethoxy)pyridin-3-yl)ethyl)isonicotinamide]","activity in CCI-induced static allodynia (50% PWT, von Frey hair test)",[1],potent activity
same,IC50,human Nav1.7 channels,< 1000 nM and 940 nM
